{"source": "patent US20150225454A1", "about": "“TETRABRANCHED PEPTIDES AND ANALOGUES AS A NEW CLASS OF ANTIMICROBIALS AND THEIR PREPARATION THEREOF” (priority 2012, published 2015)", "key": {"fungi": {"system": "fungi", "conditions": "cited from earlier work"}, "[1]": {"conditions": "temperature or pH; cited from earlier work"}, "[2]": {"conditions": "cited from earlier work"}, "C. albicans": {"system": "C. albicans", "test": "microbe, parasite or virus in culture", "type": "cell-based", "description": "The yeast strains were cultivated and suspended in Sabouraud's Dextrose (SD) broth diluted at one sixth at a starting OD600=˜0.08 in a flat-bottomed microtitre plate. A serial dilution of peptide in the same broth was mixed with the inoculum to give a final peptide concentration of 0.4-22 μM. The antifungal activity was assessed by monitoring the OD600 in cycles of 30 minutes and an orbital shaking at 100 rpm using an Infinite M200 microplate reader (Tecan Group Ltd., Switzerland) for 24/48 h at 37° C. Cultures without peptides were used as positive controls and broth alone or with 22 μM peptide served as negative controls. The minimum concentration required for complete inhibition was assessed by both visible observations as well as by measuring the OD600 and taken as the MIC. Each experiment was repeated in triplicates."}, "[3]": {"system": "C. albicans (ATCC 10231 and DF2672R)", "type": "cell-based", "description": "The time-kill kinetics was measured for two strains of C. albicans (ATCC 10231 and DF2672R). The cultures were grown overnight in SD broth and the cell concentration was adjusted to 10^5-10^6 CFU/ml with phosphate buffer. The peptide or antifungals were added to the individual cultures. […] The test solution was incubated at 37° C. with constant shaking. 100 μL of the suspension is withdrawn at predetermined time points, serially diluted (10^2 or 10^3 fold) and poured into the SDA plate. The plate was incubated for 48 h at 37° C. for colony counting. The data were expressed in terms of % cell viability relative to the positive control."}, "rabbit red blood cells": {"system": "rabbit red blood cells", "type": "cell-based", "description": "Haemolytic activity of peptides and antifungal drugs were determined against rabbit red blood cells (Oren et al., 1997). Briefly, serial dilution of peptides/antifungals in PBS was mixed with rRBC (final concentration 4% v/v), incubated at 37° C. for 1 h and centrifuged at 3000 rpm for 10 minutes. The release of hemoglobin in the supernatant was monitored by measuring the hemoglobin absorbance at 576 nm. The readings from cell suspension in PBS (without any additives) or 1% Triton-X100 were used as 0% or 100% haemolysis."}, "IOBA-NHC cells": {"system": "IOBA-NHC cells", "type": "cell-based, human", "conditions": "24 h incubation; read-out: EC50 (concentration that reduces the viable cells by 50%)", "description": "IOBA-NHC cells were cultured under standard conditions (humidified atmosphere of 5% CO2 at 37° C.) in DMEM/F12 supplemented with 1 μg/ml bovine pancreas insulin, 2 ng/ml mouse epidermal growth factor, 0.1 μg/ml cholera toxin, […] hydrocortisone, 10% fetal bovine serum (FBS), 50 UI/ml penicillin, and 50 UI/ml streptomycin. Cells from passages 50-80 were used in all experiments. Every day, normal culture development was observed by phase-contrast microscopy. Cells were removed by gentle trypsin incubation at confluence and counted. They were seeded into 96 well culture plates (Corning, Schiphol-Rijk, The Netherlands) for microtitration analysis of flow cytotoxicity assay (˜10,000 cells/well). Cultures were kept at 37° C. for 24 h. Subconfluent cells (culture surface covering nearly 70%) were then exposed to various peptide concentrations (0.22-225 μM). Cytotoxicity was measured periodically using MultiTox-Fluor Multiplex assay kit (Promega, Wis., USA) by measuring the AFC fluorescence (λex=485 and λem=520 nm)."}, "[4]": {"test": "Calcein release from fungal model membrane SUVs", "conditions": "peptide:lipid ratio 1:30 and 1:15", "description": "For the preparation of PC/PE/PI or PS/Erg SUV, the lipids were dissolved in chloroform/methanol (2:1, v/v) in a glass tube. Ergosterol was dissolved in same solvent and added to lipid mixture to make final ergosterol content of 15 wt %. The Lipid-ergosterol mixture was dried using nitrogen gas to form lipid layer. The film was hydrated in a buffer containing 20 mM PBS (pH 7), vortexed and sonicated. Each cycle of sonication (5 sec, 40° C.) is followed by freezing in liquid nitrogen and thawing on a water bath kept at 37° C. The procedure was repeated 5-6 times until an optically clear dispersion appeared. The SUV was divided into two parts. To the first part 50 mM calcein was added and incubated for 1 h. The excess calcein was removed by injecting 100 μL of the calcein-loaded SUV's into a Ultrahydrogel™ 250 (7.8 mm×300 mm) column equilibrated with 20 mM PBS (pH 7.0) and eluted isochratically at a flow rate of 1 ml/min for 1.5 column volumes. The calcein-loaded liposomes were mixed with calcein-free liposome (1:1) to adjust final liposome concentration. Peptide concentration was added to obtain 1:30 or 1:15 peptide:liposome ratio. Changes in the fluorescence signal after addition of peptide or Triton X-100 was measured on a PTI spectrofluorometer, using an excitation wavelength of 480 nm and emission wavelength of 512 nm. The Percentage calcein released at each time point was calculated using the equation: […]\nSimilar protocol was followed for the preparation of PC/Cholesterol SUVs."}}, "note": "Entries after “also recorded” stand apart in the source; their conditions may differ. Read-outs that look alike come from different tables or passages of the source. Where a SMILES comes first, the peptide text is derived from it. Bridges are numbered along the chain shown (N, C = ends). Roman numbers before positions name the chains, in order."}
{"molecule": "CN(C/C=C/C#CC(C)(C)C)Cc1cccc2ccccc12", "note": "[Terbinafine]", "values": [{"measurement": "Activity", "setting": "fungi", "value": "Broad spectrum"}, {"measurement": "Solubility", "setting": "[1]", "value": 0.00074, "unit": "mg/L"}, {"measurement": "logP", "setting": "[2]", "value": 5.9}]}
{"molecule": "C[C@@H]1[C@H](O)[C@@H](C)/C=C/C=C/C=C/C=C/C=C/C=C/C=C/[C@H](O[C@@H]2O[C@H](C)[C@@H](O)[C@H](N)[C@@H]2O)C[C@@H]2O[C@](O)(C[C@@H](O)C[C@@H](O)[C@H](O)CC[C@@H](O)C[C@@H](O)CC(=O)O[C@H]1C)C[C@H](O)[C@H]2C(=O)O", "note": "[Amphotericin B, reference compound]", "values": [{"measurement": "MIC for two C. albicans clinical isolates", "setting": "C. albicans; two C. albicans clinical isolates", "value": 1.4, "unit": "µM"}, {"measurement": "time to maximal effect", "setting": "[3]; C. albicans DF2672R, 16×MIC", "value": "less than 8 h"}, {"measurement": "HC50", "setting": "rabbit red blood cells", "value": "59.4 ± 7.8", "unit": "µM"}, {"measurement": "EC50", "setting": "IOBA-NHC cells", "value": "134 ± 16", "unit": "µM"}, {"measurement": "Activity", "setting": "fungi", "value": "Broad spectrum; also recorded: Excellent agains Aspergilus & Candida"}]}
{"molecule": "CC(C)[C@H](N)C(=O)N[C@@H](CCCNC(=N)N)C(=O)NCC(=O)N[C@@H](CCCNC(=N)N)C(=O)N[C@H](C(=O)N[C@@H](CCCNC(=N)N)C(=O)N[C@@H](CCCCN)C(=O)N[C@@H](CCCNC(=N)N)C(=O)NCCCC[C@H](NC(=O)[C@H](CCCNC(=N)N)NC(=O)[C@H](CCCCN)NC(=O)[C@H](CCCNC(=N)N)NC(=O)[C@@H](NC(=O)[C@H](CCCNC(=N)N)NC(=O)CNC(=O)[C@H](CCCNC(=N)N)NC(=O)[C@@H](N)C(C)C)C(C)C)C(=O)NCCCC[C@H](NC(=O)[C@H](CCCCNC(=O)[C@H](CCCNC(=N)N)NC(=O)[C@H](CCCCN)NC(=O)[C@H](CCCNC(=N)N)NC(=O)[C@@H](NC(=O)[C@H](CCCNC(=N)N)NC(=O)CNC(=O)[C@H](CCCNC(=N)N)NC(=O)[C@@H](N)C(C)C)C(C)C)NC(=O)[C@H](CCCNC(=N)N)NC(=O)[C@H](CCCCN)NC(=O)[C@H](CCCNC(=N)N)NC(=O)[C@@H](NC(=O)[C@H](CCCNC(=N)N)NC(=O)CNC(=O)[C@H](CCCNC(=N)N)NC(=O)[C@@H](N)C(C)C)C(C)C)C(=O)N[C@@H](CCCCN)C(=O)O)C(C)C", "note": "[Sc_B4010] (I: H-VRGRVRKRKKK-OH / II: H-VRGRVRKRK / III: H-VRGRVRKR / IV: H-VRGRVRKR; amide I:9-IV:C, I:10-II:C, II:9-III:C; N-terminus and C-terminus assumed)", "values": [{"measurement": "increase in MIC on scrambling the sequence of B4010", "setting": "C. albicans", "value": "2-4 fold"}, {"measurement": "calcein release", "setting": "[4]", "value": "decreased calcein release"}, {"measurement": "calcein release", "setting": "[4]; listed as scrambled peptide", "value": "about 41%"}]}
{"molecule": "CC(C)[C@H](NC(=O)[C@H](CCCCN)NC(=O)[C@H](CCCNC(=N)N)NC(=O)CNC(=O)[C@@H](N)CCCNC(=N)N)C(=O)N[C@H](C(=O)N[C@@H](CCCNC(=N)N)C(=O)N[C@@H](CCCNC(=N)N)C(=O)NCCCC[C@H](NC(=O)[C@H](CCCNC(=N)N)NC(=O)[C@H](CCCNC(=N)N)NC(=O)[C@@H](NC(=O)[C@@H](NC(=O)[C@H](CCCCN)NC(=O)[C@H](CCCNC(=N)N)NC(=O)CNC(=O)[C@@H](N)CCCNC(=N)N)C(C)C)C(C)C)C(=O)N[C@@H](CCCCN)C(=O)O)C(C)C", "note": "[Peptide B2088, reference compound] (I: H-RGRKVVRRKK-OH / II: H-RGRKVVRR; amide I:9-II:C; N-terminus and C-terminus assumed)", "values": [{"measurement": "decrease in MIC compared to the monomer", "setting": "C. albicans", "value": "~14", "unit": "×"}, {"measurement": "calcein release", "setting": "[4]", "value": "decreased calcein release"}]}
{"molecule": "CCC(C)n1ncn(-c2ccc(N3CCN(c4ccc(OCC5COC(Cn6cncn6)(c6ccc(Cl)cc6Cl)O5)cc4)CC3)cc2)c1=O", "note": "(stereo not shown) [Itraconazole]", "values": [{"measurement": "Solubility", "setting": "[1]", "value": 0.00047, "unit": "mg/L"}]}
{"molecule": "CC[C@H](C)C[C@H](C)CCCCCCCCC(=O)N[C@H]1C[C@@H](O)[C@@H](NCCN)NC(=O)[C@@H]2[C@@H](O)CCN2C(=O)[C@H]([C@H](O)CCN)NC(=O)[C@H]([C@H](O)[C@@H](O)c2ccc(O)cc2)NC(=O)[C@@H]2C[C@@H](O)CN2C(=O)[C@H]([C@@H](C)O)NC1=O", "note": "[Caspofungin]", "values": [{"measurement": "Activity", "setting": "fungi", "value": "Effective against Candida spp"}, {"measurement": "Solubility", "setting": "[1]", "value": 370, "unit": "mg/L"}]}
{"molecule": "CC(=O)N1CCN(c2ccc(OCC3COC(Cn4ccnc4)(c4ccc(Cl)cc4Cl)O3)cc2)CC1", "note": "(stereo not shown) [Ketaconazole]", "values": [{"measurement": "Activity", "setting": "fungi", "value": "Broad spectrum"}, {"measurement": "Solubility", "setting": "[1]", "value": "0.09 (25° C.) mg/L"}]}
{"molecule": "Nc1nc(=O)[nH]cc1F", "note": "[Peptide 5-FC, 5-FC]", "values": [{"measurement": "Activity", "setting": "fungi", "value": "Not active against filamentous fungii"}, {"measurement": "Solubility", "setting": "[1]", "value": "1.05e+06", "unit": "mg/L"}, {"measurement": "logP", "setting": "[2]", "value": "−1.1"}]}
{"molecule": "C[C@@H]1C/C=C/C=C/C=C/C=C/[C@H](O[C@@H]2O[C@H](C)[C@@H](O)[C@H](N)[C@@H]2O)C[C@@H]2O[C@](O)(C[C@@H](O)C[C@H]3O[C@@H]3/C=C/C(=O)O1)C[C@H](O)[C@H]2C(=O)O", "note": "[Natamycin, reference compound]", "values": [{"measurement": "MIC", "setting": "C. albicans; Candida albicans, C. albicans DF2672R", "value": 15, "unit": "µM"}, {"measurement": "time required to achieve similar endpoints (4 log reduction)", "setting": "[3]; ATCC strain, 16×MIC", "value": 24, "unit": "h"}, {"measurement": "fungicidal action", "setting": "[3]; C. albicans DF2672R, 2×MIC, 24 h exposure", "value": "no fungicidal action"}, {"measurement": "HC50", "setting": "rabbit red blood cells; rabbit, 1 h", "value": "139.6 ± 0.18", "unit": "µM"}, {"measurement": "Activity", "setting": "fungi", "value": "Broad spectrum"}]}
{"molecule": "OC(Cn1cncn1)(Cn1cncn1)c1ccc(F)cc1F", "note": "[Fluconazole]", "values": [{"measurement": "Activity", "setting": "fungi", "value": "Broad spectrum. Less effective against"}, {"measurement": "Solubility", "setting": "[1]", "value": 1, "unit": "mg/L"}]}
{"molecule": "C[C@@H]1[C@H](O)[C@@H](C)/C=C/C=C/CC/C=C/C=C/C=C/C=C/C(O[C@H]2O[C@H](C)[C@@H](O)[C@H](N)[C@@H]2O)CC2O[C@](O)(CC(O)C(O)CCC(O)CC(O)CC(O)CC(=O)O[C@H]1C)CC(O)C2C(=O)O", "note": "(stereo partly shown) [Nystatin]", "values": [{"measurement": "Activity", "setting": "fungi", "value": "Broad spectrum"}, {"measurement": "Solubility", "setting": "[1]", "value": "360 (24° C.) mg/L"}, {"measurement": "logP", "setting": "[2]", "value": 0.5}]}
